{"source": "patent EP4663632A1", "about": "“COMPOUNDS USEFUL FOR THE MODULATION OF THE ACTIVITY OF STING” (Sulis Therapeutics ApS, priority 2024, dated 2025)", "key": {"[1]": {"molecular_target": "T1, C-terminal domain (CTD) of human STING (Homo sapiens, UniProt Q86WV6)", "assay": "STING binding FP assay I", "design": "recombinant human STING protein (155-379)", "conditions": "35 nM STING, 4 nM Probe 1", "description": "The interaction between molecules and the C-terminal domain (CTD) of human STING was evaluated using a competition binding assay. In this assay, recombinant human STING protein (155-379) and a STING binding fluorescent probe were employed. Upon binding of the probe to STING, the rotation of the fluorescent probe is slowed due to the larger molecular size of the protein-bound complex. As a result, emitted light retains its plane of polarization, leading to an increase in fluorescence polarization. Molecules competing for the probe binding site displace the probe, which leads to rapid randomization of the polarization plane of the emitted light and a subsequent decrease in measured fluorescence polarization signal. Change in polarization was measured, allowing a comparative evaluation of the binding affinities of different compounds to the target protein.\nThe assay was performed in 96-well plates (ThermoFisher, cat.# 237108) containing 100µl : 10 µL test compound in 10% DMSO and buffer A (150 mM NaCl, 50 mM HEPES pH 7.5, 1 mM DTT) + 90 µL prepared master mix solution of: 4 nM fluorescein-labelled STING ligand (Probe 1; synthesis described above) in buffer A + 0.055% Tween-20 (v/v) and 35 nM STING in buffer A. Post mixing, plates were agitated at 600rpm and incubated for 20 min at room temperature. Subsequent measurements of the fluorescence polarization signal were made on a BioTek Synergy-H1 plate reader, using a polarization filter; Exc: 485/20 nm, Em: […]) with a gain-setting of 75. IC50 values were determined using a standard non-linear regression four-parameter curve fit in Graphpad Prism."}, "[2]": {"molecular_target": "T1, C-terminal domain (CTD) of human STING", "assay": "STING binding TR-FRET assay", "design": "purchased CisBio 64BDSTGPEG", "conditions": "Human STING WT Binding Kit (CisBio)", "description": "The affinity of molecules to the C-terminal domain (CTD) of human STING was determined using a commercial Human STING WT Binding Kit (CisBio, cat.# 64BDSTGPEG). In this time-resolved FRET assay, a recombinant human STING protein construct with a His-tag was employed. When bound to STING, a D2-labeled active site probe accepts the 620 nm emission from Anti-HIS-Tb-STING and an increase in fluorescence is measured at 665 nm. Molecules that compete for the probe binding site will result in a low 665 nm signal. The assay was run in CisBio low-volume white 96-well plates (catalog# 66PL96005) containing 5 µL compounds in Diluent Buffer (supplied with the CisBio kit). A solution of 1xSTING, 1x Anti-HIS-Tb and 1X D2-probe in TB detection buffer (kit supplied) was added to the plate. Plates were centrifuged for 2 min at 500 rpm, incubated for 60 min at room temperature in the dark, and then fluorescence emission at 665 nm following 330 nm xenon flash excitation on an BioTek synergy H1 multimode reader (Agilent) was measured. The plC50 values were determined using a standard four parameter curve fit in GraphPad Prism."}}, "note": "pIC50: −log10 of the molar value.", "data": [{"smiles": "CCOC(=O)COC(CCn1c(=NC(=O)c2cc(C)nn2CC)n(C)c2cc(C(N)=O)ccc21)CCn1c(=NC(=O)c2cc(C)nn2CC)n(C)c2cc(C(N)=O)ccc21", "note": "(centres unmarked) [Building Block G-2, Ethyl (3-{5-carbamoyl-2-[(1-ethyl-3-methyl-5-pyrazolyl)carbonylimino]-3-methyl-2,3-dihydro-1H-1,3-benzimidazol-1-yl}-1-(2-{5-carbamoyl-2-[(1-ethyl-3-methyl-5-pyrazolyl)carbonylimino]-3-methyl-2,3-dihydro-1H-1,3-benzimidazol-1-yl}ethyl)propoxy)acetate]", "values": [{"measurement": "pIC50", "setting": "[1]", "value": "> 7.52"}, {"measurement": "pIC50", "setting": "[2]", "value": 9.34}]}]}
